Experimental data: patent US9149523B2, “Compositions and methods for treating cancer and neurodegenerative diseases” (Yeda Research and Development Co. Ltd., priority 2010, dated 2015)

Target: T1, DAPk WT (Homo sapiens, UniProt P53355)
T1 construct: Plasmids encoding N-terminal Flag and hemaglutinin (HA)-tagged human full-length DAPk (Flag-DAPk and HA-DAPk); made in house; host or cells: HEK 293T cells, transient transfection; anti-FLAG M2 immunoprecipitation, elution with FLAG peptide
Assay: In vitro kinase assay (ELISA, hMLC Ser 19 phosphorylation)
Assay type: biochemical
Settings: DAPk WT pre-incubated with GDP versus Gpp(NH)p (non-hydrolysable GTP analog); FIG. 4C
Description: Maxisorp™ multiwell polystyrene plates (Nunc, Langenselbold, Germany) were incubated at 4° C., overnight, with the indicated amounts of hMLC diluted in PBS. Plates were washed with PBST and blocked with 4% BSA (Sigma, City, State) diluted in PBS. The kinase reactions were then performed on the plate. Briefly, the wells were incubated with kinase buffer (50 mM Hepes, pH 7.5, 20 mM MgCl2, 0.1 mg/mL BSA, 50 mM β-glycerol phosphate, 50 μM ATP) containing 2.5 nM of the indicated enzyme, for 10 min. The reactions were stopped by addition of EDTA to final concentration of 25 mM. Plates were washed again with PBST and then incubated with rabbit anti MLC (Ser19) polyclonal antibody (Cell Signaling, Danvers, Mass.) at a 1:250 dilution in PBS. PBST wash was performed again and the plate incubated with HRP-conjugated goat anti rabbit IgG (Jackson ImmunoResearch, West Grove, Pa.). Detection was done with the HRP substrate ABTS. Where indicated the HRP read outs were plot using the Michaelis-Menten equation and the curves fit by the least squares method.
To determine the significance to DAPk's enzymatic activity of the ROC domain in general and of the GTP-binding in particular, in vitro kinase assays were performed. The assays were based on an ELISA format measuring phosphorylation of the DAPk substrate hMLC at Ser 19, using specific anti-phospho Ser19 antibodies. […]

T1 sequence (P53355 whole entry): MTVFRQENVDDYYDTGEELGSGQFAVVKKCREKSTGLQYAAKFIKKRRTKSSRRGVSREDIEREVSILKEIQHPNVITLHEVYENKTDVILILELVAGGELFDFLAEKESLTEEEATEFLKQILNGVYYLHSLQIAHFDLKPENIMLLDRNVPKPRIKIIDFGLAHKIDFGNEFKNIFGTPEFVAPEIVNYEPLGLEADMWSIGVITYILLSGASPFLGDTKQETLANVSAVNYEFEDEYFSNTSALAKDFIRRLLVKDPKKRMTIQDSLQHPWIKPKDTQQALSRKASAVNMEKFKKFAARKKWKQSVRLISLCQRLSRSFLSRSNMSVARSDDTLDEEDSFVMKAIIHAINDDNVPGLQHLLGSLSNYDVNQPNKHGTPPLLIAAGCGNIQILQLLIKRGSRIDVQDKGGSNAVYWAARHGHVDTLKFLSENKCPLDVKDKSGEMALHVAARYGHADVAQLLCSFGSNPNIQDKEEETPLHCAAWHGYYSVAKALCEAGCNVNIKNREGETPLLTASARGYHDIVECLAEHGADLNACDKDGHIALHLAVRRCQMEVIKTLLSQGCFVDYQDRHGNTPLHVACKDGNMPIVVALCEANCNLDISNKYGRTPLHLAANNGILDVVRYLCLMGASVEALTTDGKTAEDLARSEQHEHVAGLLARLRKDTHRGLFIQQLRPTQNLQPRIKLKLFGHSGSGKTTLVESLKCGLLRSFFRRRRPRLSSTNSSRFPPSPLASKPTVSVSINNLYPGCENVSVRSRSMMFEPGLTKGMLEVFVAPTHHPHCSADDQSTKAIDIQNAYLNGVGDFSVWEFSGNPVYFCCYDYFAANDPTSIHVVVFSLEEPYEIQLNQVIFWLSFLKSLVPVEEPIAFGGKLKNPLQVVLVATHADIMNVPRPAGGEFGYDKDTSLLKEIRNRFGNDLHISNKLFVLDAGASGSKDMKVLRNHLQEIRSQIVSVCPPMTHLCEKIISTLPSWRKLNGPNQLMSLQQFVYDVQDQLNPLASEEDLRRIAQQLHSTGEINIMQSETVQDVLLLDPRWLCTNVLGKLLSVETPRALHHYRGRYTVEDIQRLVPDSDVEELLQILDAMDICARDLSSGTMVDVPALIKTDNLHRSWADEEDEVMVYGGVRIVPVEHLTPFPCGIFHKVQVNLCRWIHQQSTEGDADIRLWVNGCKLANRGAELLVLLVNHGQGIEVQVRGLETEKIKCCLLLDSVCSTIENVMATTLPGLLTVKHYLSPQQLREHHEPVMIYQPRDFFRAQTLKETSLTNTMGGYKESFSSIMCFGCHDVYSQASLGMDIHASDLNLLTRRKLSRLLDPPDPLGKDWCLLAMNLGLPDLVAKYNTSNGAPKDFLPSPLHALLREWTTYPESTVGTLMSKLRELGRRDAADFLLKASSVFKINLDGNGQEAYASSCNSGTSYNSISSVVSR

DAPk catalytic activity: increased catalytic activity
SMILES: Nc1nc2c(ncn2[C@@H]2O[C@H](COP(=O)(O)OP(=O)(O)O)[C@@H](O)[C@H]2O)c(=O)[nH]1 [GDP]
